Assay results reported in patent publication US11066414B2, “Cot modulators and methods of use thereof” (Gilead Sciences, Inc., priority 2015, dated 2021).
Read-outs that look alike come from different tables or passages of the source.

Legend:
TNFα = assay: Cot Monocyte TNFα Cell Based Assay; conditions: Homo sapiens, Monocyte
Human Cot = Human Cot (Homo sapiens (Human), UniProt P41279); assay: High Throughput Cot Biochemical Assay
[1] = read-out: EC50 TNF, LPS-stimulated human monocytes, TNFα
[2] = IC50 HTRF, Cot HTRF (TR-FRET) biochemical assay
[3] = read-out: EC50 TNF, LPS-stimulated human monocytes, TNFα TR-FRET
[4] = IC50 HTRF, Cot HTRF (TR-FRET KinEASE) biochemical assay, 400 μM ATP

Chain of Human Cot (P41279 30-397): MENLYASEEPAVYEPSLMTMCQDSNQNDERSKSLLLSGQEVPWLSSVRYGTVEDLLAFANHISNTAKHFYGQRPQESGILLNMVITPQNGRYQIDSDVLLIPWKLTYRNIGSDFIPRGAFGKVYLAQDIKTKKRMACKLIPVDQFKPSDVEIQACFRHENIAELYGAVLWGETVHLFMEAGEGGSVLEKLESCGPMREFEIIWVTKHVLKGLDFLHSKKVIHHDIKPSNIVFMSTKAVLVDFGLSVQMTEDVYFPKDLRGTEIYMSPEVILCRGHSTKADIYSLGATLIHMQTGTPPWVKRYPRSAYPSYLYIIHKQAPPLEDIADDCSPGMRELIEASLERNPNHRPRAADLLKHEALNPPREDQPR

Row | Compound | EC50 (TNFα; [1]) [nM] | IC50 (Human Cot; [2]) [nM] | EC50 (TNFα; [3]) [nM] | IC50 (Human Cot; [4]) [nM] | IC50 (Human Cot; read-out: IC50 HTRF, Cot HTRF (TR-FRET) biochemical assay) [nM]
1 | CC(C)(C)CNc1c(C#N)cnc2c(C#N)cc(N[C@H](c3cn(C4(C(F)(F)F)CC4)nn3)c3cccc4cnccc34)cc12 [Example 470, (S)-6-((isoquinolin-5-yl(1-(1-(trifluoromethyl)cyclopropyl)-1H-1,2,3-triazol-4-yl)methyl)amino)-4-(neopentylamino)quinoline-3,8-dicarbonitrile] | 46 | 2 | – | – | –
2 | Cc1nc(F)ccc1[C@H](Nc1cc(C#N)c2ncc(C#N)c(NCC(C)(C)C)c2c1)c1cn(C(C)(C)C2CC2)nn1 [Example 850, (S)-6-(((1-{2-cyclopropylpropan-2-yl)-1H-1,2,3-triazol-4-yl)(6-fluoro-2-methylpyridin-3-yl)methyl)amino)-4-(neopentylamino)quinoline-3,8-dicarbonitrile] | – | – | 65 | 6 | –
3 | C[C@@H](Nc1c(C#N)cnc2c(Cl)cc(N[C@H](c3c[nH]nn3)c3csc4c3CCN(C3COC3)C4)cc12)c1ccccc1 [Example 238, 8-chloro-6-(((S)-(6-(oxetan-3-yl)-4,5,6,7-tetrahydrothieno[2,3-c]pyridin-3-yl)(1H-1,2,3-triazol-4-yl)methyl)amino)-4-(((R)-1-phenylethyl)amino)quinoline-3-carbonitrile] | 901 | 3 | – | – | –
4 | CC(C)n1cc([C@@H](Nc2cc(Cl)c3ncc(C#N)c(Nc4ccc(F)c(Cl)c4)c3c2)c2cccn3nccc23)nn1 [Example 157, (S)-8-chloro-4-((3-chloro-4-fluorophenyl)amino)-6-(((1-isopropyl-1H-1,2,3-triazol-4-yl)(pyrazolo[1,5-a]pyridin-4-yl)methyl)amino)-quinoline-3-carbonitrile] | 127 | 5 | – | – | –
5 | Cc1nc(F)ccc1[C@H](Nc1cc(C#N)c2ncc(C#N)c(NCC(C)(C)C)c2c1)c1cn(C2(C(C)(C)C)CC2)nn1 [Example 860, (S)-6-(((1-(1-(tert-butyl)cyclopropyl)-1H-1,2,3-triazol-4-yl)(6-fluoro-2-methylpyridin-3-yl)methyl)amino)-4-(neopentylamino)quinoline-3,8-dicarbonitrile] | – | – | 31 | 3 | –
6 | [2H]C([2H])([2H])C([2H])([2H])[C@@H](Nc1c(C#N)cnc2c(Cl)cc(N[C@]([2H])(c3ccc(F)nc3)c3cn(C4CC4)nn3)cc12)c1ccccc1 [Example 108, 8-chloro-6-(((R)-(1-cyclopropyl-1H-1,2,3-triazol-4-yl)(6-fluoropyridin-3-yl)methyl-d)amino)-4-(((R)-1-phenyl-propyl-2,2,3,3,3-d5)amino)quinoline-3-carbonitrile] | > 10000 | 913 | – | – | –
7 | Cc1ccc([C@H](Nc2cc(Cl)c3ncc(C#N)c(Nc4ccc(F)c(Cl)c4)c3c2)c2cn(COC(=O)C(C)(C)C)nn2)cn1 [Example 273, (S)-(4-(((8-chloro-4-((3-chloro-4-fluorophenyl)amino)-3-cyanoquinolin-6-yl)amino)(6-methylpyridin-3-yl)methyl)-1H-1,2,3-triazol-1-yl)methyl pivalate] | 1560 | 51 | – | – | –
8 | CC(C)(C)CNc1c(C#N)cnc2c(Cl)cc(N[C@H](c3cn(C4(C(F)(F)F)CC4)nn3)c3cccc4ccncc34)cc12 [Example 533, (S)-8-chloro-6-((isoquinolin-8-yl(1-(1-(trifluoromethyl)cyclopropyl)-1H-1,2,3-triazol-4-yl)methyl)amino)-4-(neopentyl-amino)quinoline-3-carbonitrile] | 96 | 3 | – | – | –
9 | COC[C@H](Nc1c(C#N)cnc2c(Cl)cc(N[C@@H](c3cccnc3)c3cn(C(C)C)nn3)cc12)c1ccccc1 [Example 204, 8-chloro-6-(((S)-(1-isopropyl-1H-1,2,3-triazol-4-yl)(pyridin-3-yl)methyl)amino)-4-(((R)-2-methoxy-1-phenylethyl)amino)quinoline-3-carbonitrile] | > 10000 | 8510 | – | – | –
10 | Cc1nc(F)ccc1[C@H](Nc1cc(Cl)c2ncc(C#N)c(Nc3cnc(F)c(F)c3)c2c1)c1nnn(C2(C(F)F)CC2)c1F [Example 953, (S)-8-chloro-6-(((1-(1-(difluoromethyl)cyclopropyl)-5-fluoro-1H-1,2,3-triazol-4-yl)(6-fluoro-2-methylpyridin-3-yl)methyl)amino)-4-((5,6-difluoropyridin-3-yl)amino)quinoline-3-carbonitrile] | – | – | 353 | 36 | –
11 | Cn1ccc2c([C@H](Nc3cc(Cl)c4ncc(C#N)c(NCC(C)(C)C)c4c3)c3cn(C45CC(C4)C5)nn3)cccc2c1=O [Example 713, (S)-6-(((1-(bicyclo[1.1.1]pentan-1-yl)-1H-1,2,3-triazol-4-yl)(2-methyl-1-oxo-1,2-dihydroisoquinolin-5-yl)methyl)amino)-8-chloro-4-(neopentylamino)quinoline-3-carbonitrile] | 21 | 2 | – | – | –
12 | Cc1nc(F)ccc1[C@H](Nc1cc(C#N)c2ncc(C#N)c(NCC(C)(C)c3ccccc3)c2c1)c1cn(C2(C(F)(F)F)CC2)nn1 [Example 614, (S)-6-(((6-fluoro-2-methylpyridin-3-yl)(1-(1-(trifluoromethyl)cyclopropyl)-1H-1,2,3-triazol-4-yl)methyl)amino)-4-((2-methyl-2-phenylpropyl)amino)quinoline-3,8-dicarbonitrile] | 154 | 9 | – | – | –
13 | N#Cc1cnc2c(Cl)cc(N[C@H](c3c[nH]nn3)c3csc4c3CCNC4)cc2c1Nc1ccc(F)c(Cl)c1 [Example 275, (S)-8-chloro-4-((3-chloro-4-fluorophenyl)amino)-6-(((4,5,6,7-tetrahydrothieno[2,3-c]pyridin-3-yl)(1H-1,2,3-triazol-4-yl)methyl)-amino)quinoline-3-carbonitrile] | 2330 | 7 | – | – | –
14 | CC(C)(CNc1c(C#N)cnc2c(Cl)cc(N[C@H](c3cn(C4(C(F)F)CC4)nn3)c3cccc4c(=O)[nH]ccc34)cc12)C(F)(F)F [Example 726, (S)-8-chloro-6-(((1-(1-(difluoromethyl)cyclopropyl)-1H-1,2,3-triazol-4-yl)(1-oxo-1,2-dihydroisoquinolin-5-yl)methyl)amino)-4-((3,3,3-trifluoro-2,2-dimethylpropyl)amino)quinoline-3-carbonitrile] | 127 | 4 | – | – | –
15 | CC(C)(C)N1CCC(n2cc([C@@H](Nc3cc(Cl)c4ncc(C#N)c(Nc5ccc(F)c(F)c5)c4c3)c3cccnc3)nn2)CC1 [Example 285, (S)-6-(((1-(1-(tert-butyl)piperidin-4-yl)-1H-1,2,3-triazol-4-yl)(pyridin-3-yl)methyl)amino)-8-chloro-4-((3,4-difluorophenyl)amino)quinoline-3-carbonitrile] | 219 | 8 | – | – | –
16 | Cn1cnc(C(Nc2cc(Cl)c3ncc(C#N)c(Nc4ccc(F)c(Cl)c4)c3c2)c2cccnc2)c1 (stereo not shown) [Example 403, 8-chloro-4-((3-chloro-4-fluoro-phenyl)amino)-6-(((1-methyl-1H-imidazol-4-yl)(pyridin-3-yl)methyl)-amino)quinoline-3-carbonitrile] | 290 | – | – | – | 9
17 | N#Cc1cnc2c(Cl)cc(N[C@H](c3cn(C4CCNCC4)nn3)c3cncs3)cc2c1Nc1ccc(F)c(Cl)c1 [Example 375, (R)-8-chloro-4-((3-chloro-4-fluorophenyl)amino)-6-(((1-(piperidin-4-yl)-1H-1,2,3-triazol-4-yl)(thiazol-5-yl)methyl)amino)quinoline-3-carbonitrile] | 1510 | 4 | – | – | –
